Several values for one entry are separate records, joined by “and”; a condition that tells them apart may be missing. Equal values may be shown once.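 Grown in 96-well plates, cells were treated for 48 hours with each compound at five concentrations. Insufficient inhibition: endpoint recorded as highest concentration tested. At the GI50, growth is halved. TGI marks complete inhibition of growth.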
Key:
Assay in all cases: growth of human tumour cells (NCI), 48 h
[1] = system: TK-10 renal
[2] = system: CAKI-1 renal
[3] = system: CCRF-CEM leukemia
[4] = system: M19-MEL melanoma
[5] = system: HL-60(TB) leukemia
[6] = system: DLD-1 colon
[7] = system: HOP-92 NSCLC
[8] = system: MOLT-4 leukemia
[9] = system: NCI-H460 lung
[10] = system: RXF 393 renal

Row | Compound | GI50 [1] | TGI [1] [µM] | TGI [2] | TGI [3] [µM] | TGI [4] | TGI [5] | TGI [6] [µM] | GI50 [7] [µM] | TGI [7] | TGI [8] | GI50 [9] | TGI [9] | GI50 [10] [µM] | TGI [10] [µM] | GI50 [2] | GI50 [3] [µM] | GI50 [5] [µM] | GI50 [8] [µM] | GI50 [4] [µM]
1 | CCc1ccc(NCc2cc(OC)c(OC)c(OC)c2)cc1 | 24.6 µM and 10.7 µM | > 100 | > 100 µM | > 77.9 | 35.3 µM and > 87.8 µM | 7.94 µM and 5.38 µM | > 100 | 5.24 | 22.2 µM and 74.6 µM | 87.2 µM and > 91.5 µM | 0.268 µM and 0.127 µM | 25.1 µM and 17 µM | – | – | – | – | – | – | –
2 | CC1=C(C(=O)OCc2ccccc2)C(c2ccc3c(c2)OCO3)n2c(nc3ccccc32)N1 (centres undefined) | > 100 µM | > 100 | > 100 µM | > 100 | – | > 100 µM | – | > 100 | > 100 µM | > 100 µM | 0.369 µM | > 100 µM | 0.305 | > 100 | 0.275 µM | 0.418 | 0.341 | 0.753 | –
3 | NC(=O)[C@H]1CCN(c2ncnc(N)c2F)C[C@@H]1N1CCC[C@@H](Nc2cc(Cl)cc(C(F)(F)F)c2)C1=O | 13.5 µM | 39 | 89.7 µM | > 100 | – | 42.5 µM | – | 11.2 | 40.7 µM | 65.9 µM | 18.4 µM | 41.6 µM | 6.01 | 25.5 | 6.67 µM | 24.5 | 20.5 | 4.93 | –
4 | CCCN(Cc1ccc(F)cc1)c1ccc(CO)c(Cl)c1 | 0.0777 µM | 0.357 | 13.6 µM | 30.5 | – | 19.2 µM | – | 2.66 | 14.2 µM | 30.1 µM | 0.359 µM | 11.5 µM | 4.12 | 16.8 | 1.47 µM | 12.2 | 3.27 | 11.2 | –
5 | N#Cc1ncc(/N=C/c2ccc(N(CCCl)CCCl)cc2)s1 | 23.2 µM | 97.4 | 8.18 µM | > 100 | – | > 100 µM | – | 24.7 | 93.3 µM | > 100 µM | 3.31 µM | 66.8 µM | 12.4 | 28.9 | 2.22 µM | 16 | 7.44 | 10.6 | –
6 | CCCC(O)[C@@H](O)c1ccc2c(c1O)C(=O)c1c(OC)cccc1C2=O (some centres undefined) | – | > 100 | > 100 µM | 85.7 | 61.5 µM | 42.9 µM | > 100 | – | > 100 µM | 69.2 µM | – | > 100 µM | – | – | – | – | – | – | –
7 | Nc1cc(=O)[nH]c(SC2=NC(N)CC(O)C2)n1 (centres undefined) | – | > 100 | > 100 µM | > 100 | > 100 µM | – | > 100 | – | > 100 µM | > 100 µM | – | > 100 µM | – | – | – | – | – | – | –
8 | c1ccc2[nH]c(-c3ccc(N4CCN(c5ccc(-c6nc7ccccc7[nH]6)cc5)CC4)cc3)nc2c1 | 37.9 µM | > 100 | > 100 µM | > 100 | – | > 100 µM | – | > 100 | > 100 µM | > 100 µM | > 100 µM | > 100 µM | > 100 | > 100 | > 100 µM | 44.6 | > 100 | 34.9 | –
9 | O=C(CCN1CCCC1)Nc1ccc2c(NCc3ccc(F)cc3)c3ccccc3nc2c1 | 1.04 µM | 2.93 | 5.42 µM | 13.4 | – | 2.34 µM | – | 0.366 | 2.07 µM | 2.34 µM | 0.336 µM | 1.15 µM | 0.401 | 1.61 | 1.42 µM | 0.463 | 0.55 | 0.398 | –
10 | CC1Oc2cc3c(-c4c(O)cc(O)c5c(O)c6c(cc45)OC(C)C(C)C6=O)c(O)cc(O)c3c(O)c2C(=O)C1C (centres undefined) | – | 5.45 | 2.36 µM | 0.148 | – | 0.65 µM | – | – | 0.854 µM | 0.731 µM | – | 0.163 µM | – | 0.207 | – | – | – | – | –
11 | CC[C@](C)(O)C(=O)O[C@H]1C(=O)O[C@@H]2C[C@H]3C(C)=CC(=O)[C@@H](O)[C@]3(C)[C@H]3[C@@]4(O)OC[C@]32[C@@H]1[C@@H](C)[C@H]4O | – | 9.39 | 8.8 µM and 1.35 µM | – | 0.0957 µM and 0.069 µM | 4.11 µM and 1.09 µM | – | – | – | – | 0.184 µM | 1.12 µM and 0.327 µM | 0.285 | – | 0.577 µM and 0.158 µM | 0.0897 | 0.104 | 0.0366 | 0.0233
12 | CCOC(=O)c1c2c(n(CC(C)C)c1C)-c1nc[nH]c1C(=O)C2=O | 20.5 µM | 36.6 | 57.8 µM | 16.7 | – | 2.82 µM | – | 3.82 | 16.2 µM | 9.45 µM | 16.5 µM | 30.1 µM | 13.9 | 26.8 | 17.7 µM | 4.78 | 0.388 | 2.57 | –
13 | CCn1c(-c2nonc2N)nc2cncc(C(=O)N3CCNCC3)c21 | > 25 µM | > 25 | > 25 µM | > 25 | – | > 25 µM | – | > 25 | > 25 µM | > 25 µM | > 25 µM | > 25 µM | > 25 | > 25 | > 25 µM | > 25 | > 25 | > 25 | –
14 | CN(C)CCNC(=O)c1cccn2c(=O)c3cc4ccccc4cc3nc12 | 0.399 µM | 9.8 | 0.593 µM | 32.6 | – | 9.73 µM | – | 0.538 | > 100 µM | 8.23 µM | 0.0439 µM | 0.283 µM | 0.0981 | 0.286 | 0.0711 µM | 0.1 | 0.36 | 0.0571 | –
15 | CCN(CC)CCOc1ccc(C(=C(C)c2ccc(Cl)cc2)c2ccc(OCCN(CC)CC)cc2)cc1 | 0.698 µM | 1.67 | 1.02 µM | 1.71 | – | 1.34 µM | – | 0.536 | 2.19 µM | 1.5 µM | 0.63 µM | 1.18 µM | 0.519 | 1.01 | 0.504 µM | 0.625 | 0.639 | 0.674 | –

From PubChem BioAssay (NCI)
